Test results as given in patent publication EP3046573B1, “AMYLIN ANALOGUES” (Zealand Pharma A/S, priority 2013, dated 2015).
Read-outs that look alike come from different tables or passages of the source. Numbered stars: 1 amine (or outer) side, 2 acyl side, 3 side chain; on linkers, the order of the positions; unused ones are H or OH. Bridge positions count the residues as written; N and C are the ends. Square brackets hold non-standard residues; d marks the D form. Peptide text beside a SMILES is read from it. * marks the point of attachment. C20 diacid = O=C(O)CCCCCCCCCCCCCCCCCCC(=O)*; γGlu = O=C(O)[C@H](CCC(=O)[*:2])N[*:1]; NMeI = CC[C@H](C)[C@H](NC)C(=O)O; Sar = CNCC(=O)O

Key:
[1] = molecular target: T1, human calcitonin receptor (hCTR2) (Homo sapiens, UniProt P30988); test: hCTR2 assay: induction of cAMP (AlphaScreen cAMP Assay kit) in COS7 cells expressing hCTR2; assay type: cell-based
T1 construct: expressed in transfected cells
T1 sequence (P30988 25-474): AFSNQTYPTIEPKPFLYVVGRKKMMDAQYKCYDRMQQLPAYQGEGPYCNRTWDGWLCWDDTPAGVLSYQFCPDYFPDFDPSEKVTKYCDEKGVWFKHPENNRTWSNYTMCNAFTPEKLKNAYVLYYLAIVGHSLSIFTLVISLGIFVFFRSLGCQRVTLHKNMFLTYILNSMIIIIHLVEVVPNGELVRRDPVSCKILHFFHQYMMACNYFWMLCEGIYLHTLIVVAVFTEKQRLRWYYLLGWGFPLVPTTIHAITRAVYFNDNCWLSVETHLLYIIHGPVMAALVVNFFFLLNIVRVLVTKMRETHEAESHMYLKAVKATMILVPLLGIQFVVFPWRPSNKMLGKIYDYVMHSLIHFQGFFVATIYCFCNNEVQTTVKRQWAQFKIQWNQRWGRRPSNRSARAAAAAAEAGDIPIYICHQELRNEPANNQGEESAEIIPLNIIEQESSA
Procedure, shortened: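 COS7 stable hCTR2 clone (RAMP-free); peptide dose-response 15 min 37° C in Tyrode pH 7.4 + 100 µM IBMX + 0.1% casein; lysis 10 min RT; AlphaScreen cAMP; 4PL fit.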

[2] = Solubility assessment (turbidity absorbance at 325 nm); assay type: physicochemical; conditions: stock 2 mg/ml diluted 1:1, ambient temperature (typically 25°C), n=1; for Solubility, Acetate buffer pH 4: 100 mM acetate buffer pH 4.0; for Solubility, Acetate buffer pH 5: 100 mM acetate buffer pH 5.0; for Solubility, Histidine buffer pH 6: 100 mM histidine buffer pH 6.0; for Solubility, Histidine buffer pH 7: 100 mM histidine buffer pH 7.0; for Solubility, Phosphate buffer pH 6: 100 mM phosphate buffer pH 6.0; for Solubility, Phosphate buffer pH 7: 100 mM phosphate buffer pH 7.0; for Solubility, Phosphate buffer pH 7.5: 100 mM phosphate buffer pH7.5
Procedure, shortened: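 Peptide stock (2 mg/ml, water pH 2.5) diluted 1:1 into 100 mM acetate (pH 4.0, 5.0), histidine (pH 6.0, 7.0) or phosphate (pH 6.0–7.5) buffer; absorbance at 325 nm read at about 25°C, n=1. A325 ≤ 0.02 taken as solubility ≥ 1 mg/ml.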

[3] = molecular target: T2, human amylin receptor 3 (hAMYR3) consisting of hCTR2 co-expressed with human Receptor Activity Modifying Protein 3 (hRAMP3) (Homo sapiens, UniProt O60896+P30988); test: hAMYR3 assay: induction of cAMP (AlphaScreen cAMP Assay kit) in COS7 cells expressing hAMYR3; assay type: cell-based
T2 construct: expressed in transfected cells
T2 sequence (P30988 25-474): T1 sequence (P30988 25-474)
T2 sequence (O60896 24-148 partner): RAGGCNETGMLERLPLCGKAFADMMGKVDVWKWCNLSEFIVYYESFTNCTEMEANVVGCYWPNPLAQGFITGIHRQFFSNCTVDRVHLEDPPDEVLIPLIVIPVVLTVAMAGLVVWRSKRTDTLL
Procedure, shortened: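 Stable COS7 clone co-expressing hCTR2 and hRAMP3, stimulated 15 min at 37° C with increasing peptide in Tyrode buffer pH 7.4 with 100 µM IBMX and 0.1% casein. cAMP measured by AlphaScreen after lysis; EC50 and % efficacy versus pramlintide from 4PL fit.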

[4] = cAMP induction in COS7 cells expressing hCTR2, average of a minimum of 3 determinations, read-out: hCTR2 EC50

SMILES: CC[C@H](C)[C@@H](C(=O)N[C@@H](CC(C)C)C(=O)N[C@@H](CO)C(=O)N[C@@H](CO)C(=O)N[C@H](C(=O)N[C@@H](CCC(=O)O)C(=O)N[C@H](C(=O)NCC(=O)N[C@@H](CO)C(=O)N[C@@H](CCC(=O)O)C(=O)N[C@H](C(=O)N1CCC[C@H]1C(N)=O)[C@@H](C)O)C(C)C)[C@@H](C)O)N(C)C(=O)[C@H](C)NC(=O)CN(C)C(=O)[C@H](Cc1ccccc1)NC(=O)[C@H](CO)NC(=O)[C@H](CO)NC(=O)[C@H](CO)NC(=O)[C@H](CO)NC(=O)[C@H](CCCNC(=N)N)NC(=O)[C@H](Cc1c[nH]cn1)NC(=O)[C@H](CC(C)C)NC(=O)[C@H](Cc1ccccc1)NC(=O)[C@H](CCC(=O)O)NC(=O)[C@H](C)NC(=O)[C@H](CC(C)C)NC(=O)[C@H](CCCNC(=N)N)NC(=O)[C@H](CO)NC(=O)[C@@H](NC(=O)[C@H](C)NC(=O)[C@@H]1CSSC[C@H](NC(=O)[C@H](CCCNC(=N)N)NC(=O)CC[C@H](NC(=O)CCCCCCCCCCCCCCCCCCC(=O)O)C(=O)O)C(=O)N[C@@H](CC(=O)O)C(=O)N[C@@H]([C@@H](C)O)C(=O)N[C@@H](C)C(=O)N[C@@H]([C@@H](C)O)C(=O)N1)[C@@H](C)O [Compound 138, [19CD]-isoGlu-RC()DTATC()ATSRLAEFLHRSSSSF-Gly(Me)-A-Ile(Me)-LSSTEVGSETP-NH2] ({C20 diacid-γGlu}-RCDTATCATSRLAEFLHRSSSSF[Sar]A[NMeI]LSSTEVGSETP-NH2; disulfide 2-7)
- EC50 [1, 4]: 0.23 nM
- Solubility, Acetate buffer pH 4 [2]: SS (SS indicates solubility ≥ 1mg/ml)
- Solubility, Acetate buffer pH 5 [2]: SS (SS indicates solubility ≥ 1mg/ml)
- Solubility, Histidine buffer pH 6 [2]: SS (SS indicates solubility ≥ 1mg/ml)
- Solubility, Histidine buffer pH 7 [2]: SS (SS indicates solubility ≥ 1mg/ml)
- Solubility, Phosphate buffer pH 6 [2]: SS (SS indicates solubility ≥ 1mg/ml)
- Solubility, Phosphate buffer pH 7 [2]: SS (SS indicates solubility ≥ 1mg/ml)
- Solubility, Phosphate buffer pH 7.5 [2]: SS (SS indicates solubility ≥ 1mg/ml)
- EC50 ([3]; cAMP induction in COS7 cells expressing hAMYR3, average of a minimum of 3 determinations, read-out: hAMY R3 EC50): 0.34 nM

SMILES: CC[C@H](C)[C@@H](C(=O)N[C@@H](CC(C)C)C(=O)N[C@@H](CO)C(=O)N[C@@H](CO)C(=O)N[C@H](C(=O)N[C@@H](CC(N)=O)C(=O)N[C@H](C(=O)NCC(=O)N[C@@H](CO)C(=O)N[C@@H](CC(N)=O)C(=O)N[C@H](C(=O)N[C@@H](Cc1ccc(O)cc1)C(=O)NC)[C@@H](C)O)C(C)C)[C@@H](C)O)N(C)C(=O)[C@H](C)NC(=O)CN(C)C(=O)[C@H](Cc1ccccc1)NC(=O)[C@H](CC(N)=O)NC(=O)[C@H](CC(N)=O)NC(=O)[C@H](CO)NC(=O)[C@H](CO)NC(=O)[C@H](CCCNC(=N)N)NC(=O)[C@H](Cc1c[nH]cn1)NC(=O)[C@H](CC(C)C)NC(=O)[C@H](Cc1ccccc1)NC(=O)[C@H](CCC(=O)O)NC(=O)[C@H](C)NC(=O)[C@H](CC(C)C)NC(=O)[C@H](CCCNC(=N)N)NC(=O)[C@H](CCC(N)=O)NC(=O)[C@@H](NC(=O)[C@H](C)NC(=O)[C@@H]1CSSC[C@H](NC(=O)[C@H](CCCNC(=N)N)NC(=O)CC[C@H](NC(=O)CCCCCCCCCCCCCCCCCCC(=O)O)C(=O)O)C(=O)N[C@@H](CC(N)=O)C(=O)N[C@@H]([C@@H](C)O)C(=O)N[C@@H](C)C(=O)N[C@@H]([C@@H](C)O)C(=O)N1)[C@@H](C)O [Compound 154, [19CD]-isoGlu-RC()NTATC()ATQRLAEFLHRSSNNF-Gly(Me)-A-Ile(Me)-LSSTNVGSNTY-NHMe] ({C20 diacid-γGlu}-RCNTATCATQRLAEFLHRSSNNF[Sar]A[NMeI]LSSTNVGSNTY-NHMe; disulfide 2-7)
- EC50 [1]: 0.55 nM
- Solubility, Acetate buffer pH 4 [2]: SS (SS indicates solubility ≥ 1mg/ml)
- Solubility, Acetate buffer pH 5 [2]: SS (SS indicates solubility ≥ 1mg/ml)
- Solubility, Histidine buffer pH 6 [2]: SS (SS indicates solubility ≥ 1mg/ml)
- Solubility, Histidine buffer pH 7 [2]: II (II indicates solubility ≤ 1 mg/ml)
- Solubility, Phosphate buffer pH 6 [2]: II (II indicates solubility ≤ 1 mg/ml)
- Solubility, Phosphate buffer pH 7 [2]: II (II indicates solubility ≤ 1 mg/ml)
- Solubility, Phosphate buffer pH 7.5 [2]: II (II indicates solubility ≤ 1 mg/ml)
- EC50 [3]: 6.3 nM

SMILES: CC[C@H](C)[C@@H](C(=O)N[C@@H](CC(C)C)C(=O)N[C@@H](CO)C(=O)N[C@@H](CO)C(=O)N[C@H](C(=O)N[C@@H](CC(N)=O)C(=O)N[C@H](C(=O)NCC(=O)N[C@@H](CO)C(=O)N[C@@H](CC(N)=O)C(=O)N[C@H](C(=O)N1CCC[C@@H]1C(N)=O)[C@@H](C)O)C(C)C)[C@@H](C)O)N(C)C(=O)[C@H](C)NC(=O)CN(C)C(=O)[C@H](Cc1ccccc1)NC(=O)[C@H](CC(N)=O)NC(=O)[C@H](CC(N)=O)NC(=O)[C@H](CO)NC(=O)[C@H](CO)NC(=O)[C@H](CCCNC(=N)N)NC(=O)[C@H](Cc1c[nH]cn1)NC(=O)[C@H](CC(C)C)NC(=O)[C@H](Cc1ccccc1)NC(=O)[C@H](CCC(=O)O)NC(=O)[C@H](C)NC(=O)[C@H](CC(C)C)NC(=O)[C@H](CCCNC(=N)N)NC(=O)[C@H](CCC(N)=O)NC(=O)[C@@H](NC(=O)[C@H](C)NC(=O)[C@@H]1CSSC[C@H](NC(=O)[C@H](CCCNC(=N)N)NC(=O)CC[C@H](NC(=O)CCCCCCCCCCCCCCCCCCC(=O)O)C(=O)O)C(=O)N[C@@H](CC(N)=O)C(=O)N[C@@H]([C@@H](C)O)C(=O)N[C@@H](C)C(=O)N[C@@H]([C@@H](C)O)C(=O)N1)[C@@H](C)O [Compound 104, [19CD]-isoGlu-RC()NTATC()ATQRLAEFLHRSSNNF-Gly(Me)-A-Ile(Me)-LSSTNVGSNT-DPro-NH2] ({C20 diacid-γGlu}-RCNTATCATQRLAEFLHRSSNNF[Sar]A[NMeI]LSSTNVGSNT[dP]-NH2; disulfide 2-7)
- EC50 [1]: 0.7 nM
- Solubility, Acetate buffer pH 4 [2]: SS (SS indicates solubility ≥ 1mg/ml)
- Solubility, Acetate buffer pH 5 [2]: SS (SS indicates solubility ≥ 1mg/ml)
- Solubility, Histidine buffer pH 6 [2]: SS (SS indicates solubility ≥ 1mg/ml)
- Solubility, Histidine buffer pH 7 [2]: SS (SS indicates solubility ≥ 1mg/ml)
- Solubility, Phosphate buffer pH 6 [2]: II (II indicates solubility ≤ 1 mg/ml)
- Solubility, Phosphate buffer pH 7 [2]: SS (SS indicates solubility ≥ 1mg/ml)
- Solubility, Phosphate buffer pH 7.5 [2]: SS (SS indicates solubility ≥ 1mg/ml)
- EC50 [3]: 4.8 nM

SMILES: CC[C@H](C)[C@@H](C(=O)N[C@@H](CC(C)C)C(=O)N[C@@H](CO)C(=O)N[C@@H](CO)C(=O)N[C@H](C(=O)N[C@@H](CCC(=O)O)C(=O)N[C@H](C(=O)NCC(=O)N[C@@H](CO)C(=O)N[C@@H](CCC(=O)O)C(=O)N[C@H](C(=O)N1CCC[C@H]1C(N)=O)[C@@H](C)O)C(C)C)[C@@H](C)O)N(C)C(=O)[C@H](C)NC(=O)CN(C)C(=O)[C@H](Cc1ccccc1)NC(=O)[C@H](CO)NC(=O)[C@H](CO)NC(=O)[C@H](CO)NC(=O)[C@H](CO)NC(=O)[C@H](CCCNC(=N)N)NC(=O)[C@H](Cc1c[nH]cn1)NC(=O)[C@H](CC(C)C)NC(=O)[C@H](Cc1ccccc1)NC(=O)[C@H](CCC(=O)O)NC(=O)[C@H](C)NC(=O)[C@H](CC(C)C)NC(=O)[C@H](CCCNC(=N)N)NC(=O)[C@H](C)NC(=O)[C@@H](NC(=O)[C@H](C)NC(=O)[C@@H]1CSSC[C@H](NC(=O)[C@H](CCCNC(=N)N)NC(=O)CC[C@H](NC(=O)CCCCCCCCCCCCCCCCCCC(=O)O)C(=O)O)C(=O)N[C@@H](CC(=O)O)C(=O)N[C@@H]([C@@H](C)O)C(=O)N[C@@H](C)C(=O)N[C@@H]([C@@H](C)O)C(=O)N1)[C@@H](C)O [Compound 145, [19CD]-isoGlu-RC()DTATC()ATARLAEFLHRSSSSF-Gly(Me)-A-Ile(Me)-LSSTEVGSETP-NH2] ({C20 diacid-γGlu}-RCDTATCATARLAEFLHRSSSSF[Sar]A[NMeI]LSSTEVGSETP-NH2; disulfide 2-7)
- EC50 [1, 4]: 0.092 nM
- Solubility, Acetate buffer pH 4 [2]: SS (SS indicates solubility ≥ 1mg/ml)
- Solubility, Acetate buffer pH 5 [2]: SS (SS indicates solubility ≥ 1mg/ml)
- Solubility, Histidine buffer pH 6 [2]: SS (SS indicates solubility ≥ 1mg/ml)
- Solubility, Histidine buffer pH 7 [2]: SS (SS indicates solubility ≥ 1mg/ml)
- Solubility, Phosphate buffer pH 6 [2]: SS (SS indicates solubility ≥ 1mg/ml)
- Solubility, Phosphate buffer pH 7 [2]: SS (SS indicates solubility ≥ 1mg/ml)
- Solubility, Phosphate buffer pH 7.5 [2]: SS (SS indicates solubility ≥ 1mg/ml)
- EC50 [3]: 0.22 nM
